Test results taken from ChEMBL document CHEMBL1772960, “N,N'-methyleno-didemnin A from the ascidian Trididemnum solidum. Complete NMR assignments and confirmation of the imidazolidinone ring by strategic analysis of 1J(CH)” (J Nat Prod, 2011).
*1 amine or outer side, *2 acyl side, *3 side chain or, on linkers, in order; H or OH if unused. Where a SMILES comes first, the peptide text is derived from it. Bridges are numbered along the chain shown (N, C = ends). [ ]: non-standard residue; d: D form. The star is where a group is joined. X1 = CC[C@H](C)[C@@H](N[*:1])[C@@H](O)CC(=O)O[C@H](C(=O)[C@H](C)C(=O)[*:2])C(C)C; NMeY = CN[C@@H](Cc1ccc(O)cc1)C(=O)O; NMeL = CN[C@@H](CC(C)C)C(=O)O; dNMeL = CN[C@H](CC(C)C)C(=O)O; Pyruvoyl = CC(=O)C(=O)*

System: HCT-116
Assay: Cytotoxicity against human HCT116 cells assessed as growth inhibition after 72 hrs by MTS assay
Assay type: functional, cell-based
Settings: HCT-116, 72 h

Row | Structure (SMILES) | IC50 [nM]
1 | CC[C@H](C)[C@H]1NC(=O)[C@@H](NC(=O)[C@H](CC(C)C)N(C)C(=O)[C@@H]2CCCN2C(=O)C(C)=O)[C@@H](C)OC(=O)[C@H](Cc2ccc(OC)cc2)N(C)C(=O)[C@@H]2CCCN2C(=O)[C@H](CC(C)C)NC(=O)[C@@H](C)C(=O)[C@H](C(C)C)OC(=O)C[C@@H]1O (Pyruvoyl-P[NMeL]T[X1]LP[NMeY](Me); ester 3-C) | 24
2 | CC[C@H](C)[C@H]1NC(=O)[C@@H](NC(=O)[C@@H](CC(C)C)NC)[C@@H](C)OC(=O)[C@H](Cc2ccc(OC)cc2)N(C)C(=O)[C@@H]2CCCN2C(=O)[C@H](CC(C)C)NC(=O)[C@@H](C)C(=O)[C@H](C(C)C)OC(=O)C[C@@H]1O [DIDEMNIN A] (H-[dNMeL]T[X1]LP[NMeY](Me); ester 2-C) | 32
